According to patent US20230073777A1, “CYCLIC-AMP RESPONSE ELEMENT BINDING PROTEIN (CBP) AND/OR ADENOVIRAL E1A BINDING PROTEIN OF 300 KDA (P300) DEGRADATION COMPOUNDS AND METHODS OF USE” (CULLGEN (SHANGHAI), INC., priority 2019, published 2023):
Read-outs that look alike come from different tables or passages of the source.

Tests used:
LNCaP cells = test: LNCaP cell viability assay (CellTiter-Glo); assay type: cell-based; conditions: Homo sapiens, 72 h, LNCaP prostate cancer cell viability inhibition, 3 days
In short: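 Three-day treatment of LNCaP cells (5000 per well) across a 12-point, 3-fold dilution series starting at 10 μM. ATP luminescence (CellTiter-Glo) relative to untreated controls gave dose-response curves fitted nonlinearly for IC50.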

P300 = P300 (Homo sapiens, UniProt Q09472); test: Immunoblotting of P300 protein levels in LNCaP or 22RV1 cells; assay type: cell-based; parameters: LNCaP or 22RV1 cells that express CBP/P300 proteins were treated with GNE-781 or the bivalent compounds; endogenous in cells; host or cells: LNCaP (clone FGC) or 22RV1 cells; conditions: read-out: Degradation (10 nM)
In short: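 P300/CBP levels quantified by chemiluminescent immunoblot band densitometry, normalized against tubulin or vinculin loading controls. Lysates came from LNCaP or 22RV1 cells exposed to compounds or DMSO vehicle for indicated times.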

[1] = percentage of inhibition of p300 at 10 nM (Table 2)
[2] = percentage of inhibition of p300 at 10 nM (Table 3)

Sequence of P300 (Q09472 whole entry): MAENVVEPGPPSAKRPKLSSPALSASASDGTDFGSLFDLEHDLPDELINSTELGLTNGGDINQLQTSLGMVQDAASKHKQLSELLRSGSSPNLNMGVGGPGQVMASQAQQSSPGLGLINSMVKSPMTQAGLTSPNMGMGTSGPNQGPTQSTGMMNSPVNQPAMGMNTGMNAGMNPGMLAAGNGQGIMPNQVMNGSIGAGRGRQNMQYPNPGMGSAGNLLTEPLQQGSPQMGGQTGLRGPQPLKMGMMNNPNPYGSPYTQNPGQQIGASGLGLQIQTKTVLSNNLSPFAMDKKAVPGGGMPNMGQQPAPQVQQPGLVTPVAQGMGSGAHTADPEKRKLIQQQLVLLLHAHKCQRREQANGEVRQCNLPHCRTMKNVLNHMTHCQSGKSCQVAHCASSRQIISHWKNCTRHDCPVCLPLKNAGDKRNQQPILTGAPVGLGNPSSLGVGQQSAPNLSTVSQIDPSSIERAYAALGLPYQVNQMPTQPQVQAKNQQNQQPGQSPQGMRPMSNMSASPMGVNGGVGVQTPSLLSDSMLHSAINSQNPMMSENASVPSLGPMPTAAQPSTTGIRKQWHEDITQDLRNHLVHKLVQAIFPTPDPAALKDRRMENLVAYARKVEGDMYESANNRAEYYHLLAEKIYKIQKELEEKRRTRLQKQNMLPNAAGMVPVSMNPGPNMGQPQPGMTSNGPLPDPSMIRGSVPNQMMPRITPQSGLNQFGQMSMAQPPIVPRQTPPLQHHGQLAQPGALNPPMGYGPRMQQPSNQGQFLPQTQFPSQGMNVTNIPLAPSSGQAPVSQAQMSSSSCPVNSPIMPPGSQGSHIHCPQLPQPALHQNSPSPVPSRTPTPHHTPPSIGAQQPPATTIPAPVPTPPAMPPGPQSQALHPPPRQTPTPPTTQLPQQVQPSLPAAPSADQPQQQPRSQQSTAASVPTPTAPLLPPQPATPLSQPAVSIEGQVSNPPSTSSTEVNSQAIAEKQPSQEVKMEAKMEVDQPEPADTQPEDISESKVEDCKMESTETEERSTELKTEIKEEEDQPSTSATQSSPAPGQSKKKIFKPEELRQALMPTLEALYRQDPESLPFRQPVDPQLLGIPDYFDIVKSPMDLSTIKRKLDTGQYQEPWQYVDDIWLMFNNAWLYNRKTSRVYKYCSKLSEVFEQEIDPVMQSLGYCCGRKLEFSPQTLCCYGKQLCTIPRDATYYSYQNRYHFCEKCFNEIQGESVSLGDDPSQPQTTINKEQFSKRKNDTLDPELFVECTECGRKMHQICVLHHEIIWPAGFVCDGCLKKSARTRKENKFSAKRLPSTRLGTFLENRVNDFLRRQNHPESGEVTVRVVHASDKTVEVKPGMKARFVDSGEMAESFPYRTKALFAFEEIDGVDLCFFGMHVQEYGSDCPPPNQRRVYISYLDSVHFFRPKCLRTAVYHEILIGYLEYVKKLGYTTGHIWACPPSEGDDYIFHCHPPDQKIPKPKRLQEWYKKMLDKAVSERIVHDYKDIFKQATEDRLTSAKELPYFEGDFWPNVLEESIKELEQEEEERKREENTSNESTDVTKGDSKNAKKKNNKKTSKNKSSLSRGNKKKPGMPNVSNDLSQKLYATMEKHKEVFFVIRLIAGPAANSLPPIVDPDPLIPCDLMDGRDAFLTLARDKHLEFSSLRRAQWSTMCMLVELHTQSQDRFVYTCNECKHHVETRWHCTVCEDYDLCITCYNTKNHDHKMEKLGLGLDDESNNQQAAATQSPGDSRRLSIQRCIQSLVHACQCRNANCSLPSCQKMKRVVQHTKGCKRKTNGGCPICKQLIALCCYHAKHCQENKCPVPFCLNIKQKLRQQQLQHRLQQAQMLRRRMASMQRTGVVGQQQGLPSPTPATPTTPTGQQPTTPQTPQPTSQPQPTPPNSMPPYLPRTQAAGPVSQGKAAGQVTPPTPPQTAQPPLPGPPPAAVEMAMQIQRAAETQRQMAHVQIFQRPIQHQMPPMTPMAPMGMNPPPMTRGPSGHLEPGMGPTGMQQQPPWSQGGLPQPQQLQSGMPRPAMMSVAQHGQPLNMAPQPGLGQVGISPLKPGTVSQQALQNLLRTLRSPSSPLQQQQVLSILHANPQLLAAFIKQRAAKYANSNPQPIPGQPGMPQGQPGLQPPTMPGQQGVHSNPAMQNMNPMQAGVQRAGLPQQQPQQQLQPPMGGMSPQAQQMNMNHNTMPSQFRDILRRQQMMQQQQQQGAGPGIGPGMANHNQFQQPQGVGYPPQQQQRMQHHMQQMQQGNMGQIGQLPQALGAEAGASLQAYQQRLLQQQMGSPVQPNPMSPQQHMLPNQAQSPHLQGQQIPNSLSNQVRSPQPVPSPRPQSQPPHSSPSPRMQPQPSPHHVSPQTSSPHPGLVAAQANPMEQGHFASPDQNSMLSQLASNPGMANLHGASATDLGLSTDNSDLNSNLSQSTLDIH

SMILES	IC50 (LNCaP cells; CellTiter-Glo (Table 2))	inhibition at 0.01 µM (P300; [1])	IC50 (LNCaP cells; CellTiter-Glo (Table 3))	inhibition at 0.01 µM (P300; [2])
CC(=O)N1CCc2c(c(N3CCCc4cc(-c5cnn(C)c5)c(C(F)F)cc43)nn2C2CCN(C(=O)CN3CC(CNc4cccc5c4C(=O)N(C4CCC(=O)NC4=O)C5=O)C3)CC2)C1 (centres unmarked) [P-158, 4-(((1-(2-(4-(5-Acetyl-3-(7-(difluoromethyl)-6-(1-methyl-1H-pyrazol-4-yl)-3,4-dihydroquinolin-1(2H)-yl)-4,5,6,7-tetrahydro-1H-pyrazolo[4,3-c]pyridin-1-yl)piperidin-1-yl)-2-oxoethyl)azetidin-3-yl)methyl)amino)-2-(2,6-dioxopiperidin-3-yl)isoindoline-1,3-dione]			90.1 nM	< 20%
CNC(=O)N1CCc2c(c(N3CCCc4cc(-c5cnn(C)c5)c(C(F)F)cc43)nn2C2CCN(CCCCCCOc3cccc4c3C(=O)N(C3CCC(=O)NC3=O)C4=O)CC2)C1 (centres unmarked) [P-091, 3-(7-(difluoromethyl)-6-(1-methyl-1H-pyrazol-4-yl)-3,4-dihydroquinolin-1(2H)-yl)-1-(1-(6-((2-(2,6-dioxopiperidin-3-yl)-1,3-dioxoisoindolin-4-yl)oxy)hexyl)piperidin-4-yl)-N-methyl-1,4,6,7-tetrahydro-5H-pyrazolo[4,3-c]pyridine-5-carboxamide]			2.1 nM	> 80%
CC(=O)N1CCc2c(c(N3CCCc4cc(-c5cnn(C)c5)c(C(F)F)cc43)nn2C2CCN(C(=O)CCCCCCNc3cccc4nc(C)n(C5CCC(=O)NC5=O)c(=O)c34)CC2)C1 (centres unmarked) [P-152, 3-(5-((7-(4-(5-Acetyl-3-(7-(difluoromethyl)-6-(1-methyl-1H-pyrazol-4-yl)-3,4-dihydroquinolin-1(2H)-yl)-4,5,6,7-tetrahydro-1H-pyrazolo[4,3-c]pyridin-1-yl)piperidin-1-yl)-7-oxoheptyl)amino)-2-methyl-4-oxoquinazolin-3(4H)-yl)piperidine-2,6-dione]			169 nM	< 20%
CNC(=O)N1CCc2c(c(N3CCCc4cc(-c5cnn(CC(=O)NCCCCCC(=O)N[C@H](C(=O)N6C[C@H](O)C[C@H]6C(=O)NCc6ccc(-c7scnc7C)cc6)C(C)(C)C)c5)c(C(F)F)cc43)nn2C2CCOCC2)C1 [P-047, 3-(7-(Difluoromethyl)-6-(1-(2-((6-(((S)-1-((2S,4R)-4-hydroxy-2-((4-(4-methylthiazol-5-yl)benzyl)carbamoyl)pyrrolidin-1-yl)-3,3-dimethyl-1-oxobutan-2-yl)amino)-6-oxohexyl)amino)-2-oxoethyl)-1H-pyrazol-4-yl)-3,4-dihydroquinolin-1(2H)-yl)-N-methyl-1-(tetrahydro-2H-pyran-4-yl)-1,4,6,7-tetrahydro-5H-pyrazolo[4,3-c]pyridine-5-carboxamide]	2560 nM	< 20%		
CC(=O)N1CCc2c(c(N3CCCc4cc(-c5cnn(C)c5)c(C(F)F)cc43)nn2C2CCN(C(=O)CCCCCCCCCn3c(=O)n(C4CCC(=O)NC4=O)c4ccccc43)CC2)C1 (centres unmarked) [P-164, 3-(3-(10-(4-(5-acetyl-3-(7-(difluoromethyl)-6-(1-methyl-1H-pyrazol-4-yl)-3,4-dihydroquinolin-1(2H)-yl)-4,5,6,7-tetrahydro-1H-pyrazolo[4,3-c]pyridin-1-yl)piperidin-1-yl)-10-oxodecyl)-2-oxo-2,3-dihydro-1H-benzo[d]imidazol-1-yl)piperidine-2,6-dione]			1 nM	> 80%
CNC(=O)N1CCc2c(c(N3CCCc4cc(-c5cnn(CC(=O)NCCCCCCCC(=O)N[C@H](C(=O)N6C[C@H](O)C[C@H]6C(=O)NCc6ccc(-c7scnc7C)cc6)C(C)(C)C)c5)c(C(F)F)cc43)nn2C2CCOCC2)C1 [P-048, 3-(7-(Difluoromethyl)-6-(1-(2-((8-(((S)-1-((2S,4R)-4-hydroxy-2-((4-(4-methylthiazol-5-yl)benzyl)carbamoyl)pyrrolidin-1-yl)-3,3-dimethyl-1-oxobutan-2-yl)amino)-8-oxooctyl)amino)-2-oxoethyl)-1H-pyrazol-4-yl)-3,4-dihydroquinolin-1(2H)-yl)-N-methyl-1-(tetrahydro-2H-pyran-4-yl)-1,4,6,7-tetrahydro-5H-pyrazolo[4,3-c]pyridine-5-carboxamide]	471 nM	< 20%		
CNC(=O)N1CCc2c(c(N3CCCc4cc(-c5cnn(C)c5)c(C(F)F)cc43)nn2C2CCN(C(=O)CCNc3cccc4c3C(=O)N(C3CCC(=O)NC3=O)C4=O)CC2)C1 (centres unmarked) [P-014, 3-(7-(Difluoromethyl)-6-(1-methyl-1H-pyrazol-4-yl)-3,4-dihydroquinolin-1(2H)-yl)-1-(1-(3-((2-(2,6-dioxopiperidin-3-yl)-1,3-dioxoisoindolin-4-yl)amino)propanoyl)piperidin-4-yl)-N-methyl-1,4,6,7-tetrahydro-5H-pyrazolo[4,3-c]pyridine-5-carboxamide]	> 10000 nM	< 20%		

The remaining lines, values ahead:

IC50 (LNCaP cells; CellTiter-Glo (Table 2))	inhibition at 0.01 µM (P300; [1])	IC50 (LNCaP cells; CellTiter-Glo (Table 3))	inhibition at 0.01 µM (P300; [2])	SMILES
2.5 nM	> 80%			CNC(=O)N1CCc2c(c(N3CCCc4cc(-c5cnn(CC(=O)NCCCCCCCCNc6ccc7c(c6)C(=O)N(C6CCC(=O)NC6=O)C7=O)c5)c(C(F)F)cc43)nn2C2CCOCC2)C1 (centres unmarked) [P-027, 3-(7-(difluoromethyl)-6-(1-(2-((8-((2-(2,6-dioxopiperidin-3-yl)-1,3-dioxoisoindolin-5-yl)amino)octyl)amino)-2-oxoethyl)-1H-pyrazol-4-yl)-3,4-dihydroquinolin-1(2H)-yl)-N-methyl-1-(tetrahydro-2H-pyran-4-yl)-1,4,6,7-tetrahydro-5H-pyrazolo[4,3-c]pyridine-5-carboxamide]
		0.2 nM	> 80%	CC(=O)N1CCc2c(c(N3CCCc4cc(-c5cnn(C)c5)c(C(F)F)cc43)nn2C2CCN(C(=O)CCCCCCCNc3cccc4c3n(C)c(=O)n4C3CCC(=O)NC3=O)CC2)C1 (centres unmarked) [P-159, 3-(4-((8-(4-(5-acetyl-3-(7-(difluoromethyl)-6-(1-methyl-1H-pyrazol-4-yl)-3,4-dihydroquinolin-1(2H)-yl)-4,5,6,7-tetrahydro-1H-pyrazolo[4,3-c]pyridin-1-yl)piperidin-1-yl)-8-oxooctyl)amino)-3-methyl-2-oxo-2,3-dihydro-1H-benzo[d]imidazol-1-yl)piperidine-2,6-dione]
		0.1 nM	> 80%	CC(=O)N1CCc2c(c(N3CCCc4cc(-c5cnn(C)c5)c(C(F)F)cc43)nn2C2CCN(C(=O)CCCCCCCNc3ccc4c(c3)n(C)c(=O)n4C3CCC(=O)NC3=O)CC2)C1 (centres unmarked) [P-161]
39 nM	< 20%			CNC(=O)N1CCc2c(c(N3CCCc4cc(-c5cnn(CC(=O)NCCCCCCCNc6cccc7c6C(=O)N(C6CCC(=O)NC6=O)C7=O)c5)c(C(F)F)cc43)nn2C2CCOCC2)C1 (centres unmarked) [P-042]
4.8 nM	> 80%			CNC(=O)N1CCc2c(c(N3CCCc4cc(-c5cnn(C)c5)c(C(F)F)cc43)nn2C2CCN(C(=O)CCCCNc3cccc4c3C(=O)N(C3CCC(=O)NC3=O)C4=O)CC2)C1 (centres unmarked) [P-033, 3-(7-(difluoromethyl)-6-(1-methyl-1H-pyrazol-4-yl)-3,4-dihydroquinolin-1(2H)-yl)-1-(1-(5-((2-(2,6-dioxopiperidin-3-yl)-1,3-dioxoisoindolin-4-yl)amino)pentanoyl)piperidin-4-yl)-N-methyl-1,4,6,7-tetrahydro-5H-pyrazolo[4,3-c]pyridine-5-carboxamide]
		22.3 nM	50 to 80%	CC(=O)N1CCc2c(c(N3CCCc4cc(-c5cnn(C)c5)c(C(F)F)cc43)nn2C2CCN(C(=O)CCCCNc3cccc4nnn(C5CCC(=O)NC5=O)c(=O)c34)CC2)C1 (centres unmarked) [P-155, 3-(5-((5-(4-(5-acetyl-3-(7-(difluoromethyl)-6-(1-methyl-1H-pyrazol-4-yl)-3,4-dihydroquinolin-1(2H)-yl)-4,5,6,7-tetrahydro-1H-pyrazolo[4,3-c]pyridin-1-yl)piperidin-1-yl)-5-oxopentyl)amino)-4-oxobenzo[d][1,2,3]triazin-3(4H)-yl)piperidine-2,6-dione]
		14.9 nM	50 to 80%	CNC(=O)N1CCc2c(c(N3CCCc4cc(-c5cnn(C)c5)c(C(F)F)cc43)nn2C2CCN(C(=O)CN3CCC(CNc4cccc5c4C(=O)N(C4CCC(=O)NC4=O)C5=O)CC3)CC2)C1 (centres unmarked) [P-102]
		11.4 nM	> 80%	CC(=O)N1CCc2c(c(N3CCCc4cc(-c5cnn(C)c5)c(C(F)F)cc43)nn2C2CCN(CC3CCN(CCCc4cccc5c4C(=O)N(C4CCC(=O)NC4=O)C5=O)CC3)CC2)C1 (centres unmarked) [P-149, 4-(3-(4-((4-(5-acetyl-3-(7-(difluoromethyl)-6-(1-methyl-1H-pyrazol-4-yl)-3,4-dihydroquinolin-1(2H)-yl)-4,5,6,7-tetrahydro-1H-pyrazolo[4,3-c]pyridin-1-yl)piperidin-1-yl)methyl)piperidin-1-yl)propyl)-2-(2,6-dioxopiperidin-3-yl)isoindoline-1,3-dione]
		135 nM	< 20%	CNC(=O)N1CCc2c(c(N3CCCc4cc(-c5cnn(C)c5)c(C(F)F)cc43)nn2C2CCN(C(=O)COCCOCC(=O)N[C@H](C(=O)N3C[C@H](O)C[C@H]3C(=O)NCc3ccc(-c4scnc4C)cc3)C(C)(C)C)CC2)C1 [P-066, 3-(7-(Difluoromethyl)-6-(1-methyl-1H-pyrazol-4-yl)-3,4-dihydroquinolin-1(2H)-yl)-1-(1-(2-(2-(2-(((S)-1-((2S,4R)-4-hydroxy-2-((4-(4-methylthiazol-5-yl)benzyl)carbamoyl)pyrrolidin-1-yl)-3,3-dimethyl-1-oxobutan-2-yl)amino)-2-oxoethoxy)ethoxy)acetyl)piperidin-4-yl)-N-methyl-1,4,6,7-tetrahydro-5H-pyrazolo[4,3-c]pyridine-5-carboxamide]
